Reference: patent US6525058B1, “Pharmaceutical composition for oral use” (Yamanouchi Pharmaceutical Co., LTD, priority 1999, dated 2003)
Where a name gives a salt, the structure may show the parent alone.

Assay: Stability of gantofiban citrate per se and when compounded with common fillers, binders and disintegrating agents
Assay type: physicochemical

CCOC(=O)CN1CCN(C[C@@H]2CN(c3ccc(C(N)=NC(=O)OC)cc3)C(=O)O2)CC1 [gantofiban citrate, 1-ethyl methylester 4-[[(5R)-3-[p-(carboxyamidino)phenyl]-2-oxo-5-oxazolidinyl]methyl]-1-piperazineacetate]
Stability in a preparation containing it (compounded with fillers, binders and disintegrating agents (lactose, D-mannitol, finely crystalline cellulose, corn starch etc.)): decomposed with a lapse of time
Stability of the substance per se (gantofiban citrate alone): stable substance
